Data on 2 compounds can be found in article PMC6145841 (Biochemistry, 2018).

Square brackets hold non-standard residues; d marks the D form. Peptide text beside a SMILES is read from it.

Assay [1] addresses T1, ComD1 receptor (Streptococcus pneumoniae serotype 2, UniProt A0A0H2ZM50). Kind of assay: Beta-galactosidase reporter dose response assay, group I strain D39pcomX::lacZ. The assay is classed as cell-based.
The next assay concerns the target ComD2 receptor (Streptococcus pneumoniae serotype 4, UniProt A0A0H2US84). The class given is cell-based.
In assay [2] the target is T1, ComD1 receptor. Particulars: Table 1; ref [26]; cited from earlier work.

Turning to `CC[C@H](C)[C@H](NC(=O)[C@H](C)NC(=O)[C@H](C)NC(=O)[C@H](C)NC(=O)[C@H](CCCNC(=N)N)NC(=O)[C@H](CCSC)NC(=O)[C@@H](N)CCC(=O)O)C(=O)N[C@H](C(=O)N[C@@H](CC(C)C)C(=O)N[C@H](CC(=O)O)C(=O)N[C@@H](Cc1ccccc1)C(=O)N[C@@H](CC(C)C)C(=O)N[C@@H](Cc1ccccc1)C(=O)N[C@@H](C)C(=O)N[C@@H](CCCNC(=N)N)C(=O)N[C@@H](CCCCN)C(=O)N[C@@H](CCCCN)C(=O)O)[C@@H](C)CC` [CSP2-I4AS5AR6Ad10L14A] (H-EMRAAAIIL[dD]FLFARKK-OH), the EC50 (as a rule, the concentration at which the effect is half-maximal) was greater than 1000 nM on ComD1 receptor [1] and 87.7 nM on ComD2 receptor.
For the compound EMALSKFFRDFILQRKK [CSP1-R3A], the “activity against the ComD1 receptor (in words)” value on ComD1 receptor [2] is “complete loss of activity”.
